Experiments:
Format in all cases: cell-based
Primary human MSCs [1] = test: EV secretion per cell from MSCs on hydrogel substrates, nanoparticle tracking analysis; conditions: 5 μM CK869, ~4 hour adhesion, EV collection after 24 hours
Primary human MSCs [2] = test: as above; conditions: 5 μM CK869; hydrogels
Experimental: Cell Seeding on Hydrogels. Hydrogel discs were placed in ultra-low binding polystyrene well plates (Corning) to ensure cells attach to hydrogels and not the plate surface. Hydrogels were washed with Hank's buffered salt solution (HBSS, Thermo Fisher Scientific) for at least 3 days before seeding cells. Cells were seeded at a low density (25 cells/mm^2). After seeding, hydrogels were washed thoroughly to remove unattached cells. Drug treatments of 3 μM MnCl2 (Thermo Fisher Scientific), 200 nM EMD 121974 sold under the tradename Cilengitide® (Cayman) and 5 μM CK869 (Cayman) were applied during and after cell adhesion to substrates. To evaluate the number of live cells seeded on substrates, cells were detached by incubating with a natural enzyme mixture with proteolytic and collagenolytic enzyme activity sold under the tradename ACCUTASE® Cell Detachment Solution (Innovative Cell Technologies, Inc.) for 10 minute at 37° C. Cells were then washed by centrifugation and directly added to HBSS containing calcein AM (1:2000; Biotium), ethidium bromide (1:2000; Thermo Fisher Scientific), and a predefined number of allophycocyanin (APC) beads (BD). After incubation at room temperature (RT) for 10 minutes, the samples were analyzed for live and dead cell number by flow cytometry.
Particle Size and Number Characterization. Particle size and number were obtained using Nanoparticle Tracking Analysis 3.2 (NTA) via NanoSight NS300 (Malvern) using a 405 nm laser. Samples were introduced by syringe pump at a rate 100 μL/min. Three thirty-second videos were acquired using camera level 14 followed by detection threshold 7. Camera focus, shutter, blur, minimum track length, minimum expected particle size and maximum jump length were set automatically by the software. Samples were diluted as needed to maintain particles per video from 100-2000. To ensure specificity, all samples were tested as compared to appropriate blank conditions.
To test the effect of substrate mechanics on EV secretion from MSCs, hydrogel substrates were engineered which were composed of alginate polymer conjugated with the cell adhesion peptide Arg-Gly-Asp (RGD) that binds primarily to αvβ3 and α5β1 integrins. Alginate-RGD hydrogels can be formed either covalently through adipic acid dihydrazide or physically through divalent cations, resulting in elastic or stress-relaxing hydrogels, respectively. For both types of hydrogels, elastic modulus (Young's modulus, E) of ˜3 kPa ‘soft’ and E ˜20 kPa ‘stiff’ were considered values that represent a physiologically relevant range of substrate elasticity for MSC mechanosensing, while E is ˜0.1 GPa for conventional plastic substrates. Primary human bone marrow MSCs were allowed to adhere to substrates for 24 hours followed by washout and collection of the serum-free conditioned medium from MSCs after 24 hours. After centrifugation of the medium at 10,000 g to remove cell, apoptotic, and larger particle fractions, particles remaining in the medium were analyzed by nanoparticle tracking analysis and normalized to the number of live adhered cells counted by flow cytometry (see Methods). MSCs were seeded at low density (˜25 cells/mm^2) to avoid potential effects from cell-cell interactions. […] Thus, focus was placed on the EVs remaining in the supernatant after the 10,000 g centrifugation. For these EVs, the particle size distribution remained similar across different substrates with median diameter ˜120 nm (FIG. 1B). […] Moreover, EVs from different substrates expressed similar levels of late endosomal markers CD63 and CD9. Importantly, levels of ribosomal RNA (rRNA) in particle preparations were similar across hydrogels or plastic substrates, and rRNA as a percentage of total RNA was lower than that found in untreated MSCs or particles derived from H2O2-treated apoptotic MSCs, ruling out apoptosis as a potential factor of increased EV secretion on the soft hydrogel. […]

F-actin in MSCs = test: Confocal imaging of F-actin in cells on hydrogels; conditions: CK869 for 2 hours; cell adhesion for 4 hours
Experimental: Sample Preparation for Imaging of F-Actin in Cells on Hydrogels. To prepare samples for F-actin imaging, glass bottom dishes (No 0., 35 mm; MatTek) were silanized, and a thin layer of PEG-DA hydrogel with varied elasticity was formed as described above. After cell seeding on hydrogels and culturing cells in the presence of DMSO or CK869, cells were permeabilized with 0.0015% saponin (Sigma) in a cytoskeleton buffer (10 mM MES, pH 6.0, 150 mM NaCl, 5 mM EGTA, 5 mM glucose, and 5 mM MgCl2) for 4 minutes at room temperature. The samples were then washed with the cytoskeleton buffer 3 times and fixed with 4% paraformaldehyde in the cytoskeleton buffer for 20 minutes at room temperature. After washing 3 times with the cytoskeleton buffer, the samples were reduced in 0.1% sodium borohydride in PBS for 20 minutes at room temperature. To label F-actin in cells, the samples were stained with a fluorescent stain sold under the tradename ALEXA FLUOR® 488 phalloidin (1:1000; Cayman) for confocal imaging or ALEXA FLUORO 647 phalloidin (1:10000; Cayman) for super-resolution imaging in PBS with 3% BSA for 40 minutes at room temperature. The samples were washed 3 times with PBS prior to imaging.
Confocal Imaging of F-actin. […] A mean projection image was created from each confocal stack, and average intensity ALEXA FLUOR® 488 phalloidin per cell was analyzed by ImageJ (NIH). […]

With `COc1ccc(N2C(=O)CSC2c2cccc(Br)c2)c(OC)c1` (stereo not shown) [CK869] the “EV secretion on the soft hydrogel” value (Primary human MSCs [1]; soft hydrogel) was “to a lesser but significant extent”, the “EV secretion on the stiff hydrogel” value (Primary human MSCs [1]; stiff hydrogel) was “increased EV secretion on the stiff hydrogel” and the “EV secretion compared to DMSO” value (Primary human MSCs [2]) was “significantly increased EV secretion”. For the same compound, the “mean intensity of phalloidin-labelled F-actin signal per cell” value (F-actin in MSCs) was “decrease the signal intensity on both substrates”.
